Species: Rattus norvegicus
Assay: DrugMatrix - Regimen: Daily Repeat
Assay type: toxicity, organism-based, Sprague-Dawley
Design: regimen Daily Repeat, gender Male, age 6-8 weeks
Details: in vivo, po, 75 mg/kg, route oral GAVAGE, dose level High, […]; for ABSOLUTE BASOPHIL / ABSOLUTE EOSINOPHIL / ABSOLUTE LYMPHOCYTE / ABSOLUTE MONOCYTE / ABSOLUTE SEGMENTED NEUTROPHIL / BASOPHIL / EOSINOPHIL / ERYTHROCYTE COUNT / HEMATOCRIT / HEMOGLOBIN / LEUKOCYTE COUNT / LYMPHOCYTE / MEAN CORPUSCULAR HEMOGLOBIN / MEAN CORPUSCULAR HEMOGLOBIN CONCENTRATION / MEAN CORPUSCULAR VOLUME / MONOCYTE / NEUTROPHIL / NUCLEATED RED BLOOD CELLS / PLATELET COUNT: tissue Blood; for ALANINE AMINOTRANSFERASE / ALBUMIN / ALKALINE PHOSPHATASE / ASPARTATE AMINOTRANSFERASE / BLOOD UREA NITROGEN / CARBON DIOXIDE / CHLORIDE / CHOLESTEROL / CREATINE PHOSPHOKINASE / CREATININE / GLUCOSE / LACTATE DEHYDROGENASE / LIPASE / PHOSPHORUS / POTASSIUM / SODIUM / TOTAL BILIRUBIN / TOTAL PROTEIN / URIC ACID: tissue Plasma

## C[C@@H]1CC[C@@]2(OC1)O[C@H]1[C@@H](O)[C@H]3[C@@H]4CC[C@H]5C[C@@H](O[C@@H]6O[C@H](CO)[C@H](O[C@@H]7O[C@H](CO)C(O)[C@H](O[C@@H]8OC[C@@H](O)[C@H](O)[C@H]8O)[C@H]7O[C@@H]7O[C@H](CO)[C@H](O)[C@H](O[C@@H]8O[C@H](CO)[C@@H](O)[C@H](O)[C@H]8O)[C@H]7O)[C@H](O)[C@H]6O)[C@H](O)C[C@]5(C)[C@H]4CC[C@]3(C)[C@H]1[C@@H]2C (stereo partly specified) [DIGITONIN]
72 h, time 3 day
  ABSOLUTE BASOPHIL: 0 CELLS/uL
  ABSOLUTE EOSINOPHIL: 39.67 CELLS/uL
  ABSOLUTE LYMPHOCYTE: 12631.67 CELLS/uL
  ABSOLUTE MONOCYTE: 0 CELLS/uL
  ABSOLUTE SEGMENTED NEUTROPHIL: 1028.67 CELLS/uL
  BASOPHIL: 0%
  EOSINOPHIL: 0.33%
  ERYTHROCYTE COUNT: 5.46 x10E6/uL
  HEMATOCRIT: 34.9%
  HEMOGLOBIN: 13.03 G/DL
  LEUKOCYTE COUNT: 13.7 x10E3/uL
  LYMPHOCYTE: 92.33%
  MEAN CORPUSCULAR HEMOGLOBIN: 23.83 pg
  MEAN CORPUSCULAR HEMOGLOBIN CONCENTRATION: 37.37 G/DL
  MEAN CORPUSCULAR VOLUME: 63.8 fL
  MONOCYTE: 0%
  NEUTROPHIL: 7.33%
  NUCLEATED RED BLOOD CELLS: 0 /100WBC
  PLATELET COUNT: 1082.67 x10E3/uL
  ALANINE AMINOTRANSFERASE: 64 u/L
  ALBUMIN: 4.23 G/DL
  ALKALINE PHOSPHATASE: 395.33 u/L
  ASPARTATE AMINOTRANSFERASE: 86.33 u/L
  BLOOD UREA NITROGEN: 16.67 mg/dL
  CARBON DIOXIDE: 25.33 mmol/L
  CHLORIDE: 102 MEQ/L
  CHOLESTEROL: 78 mg/dL
  CREATINE PHOSPHOKINASE: 233.67 u/L
  CREATININE: 0.17 mg/dL
  GLUCOSE: 178.33 mg/dL
  LACTATE DEHYDROGENASE: 118.33 u/L
  LIPASE: 9 u/L
  PHOSPHORUS: 13.13 mg/dL
  POTASSIUM: 6.32 MEQ/L
  SODIUM: 144.17 MEQ/L
  TOTAL BILIRUBIN: 0.23 mg/dL
  TOTAL PROTEIN: 5.93 G/DL
  URIC ACID: 2.1 mg/dL
120 h, time 5 day
  ABSOLUTE BASOPHIL: 0 CELLS/uL
  ABSOLUTE EOSINOPHIL: 43.33 CELLS/uL
  ABSOLUTE LYMPHOCYTE: 6877 CELLS/uL
  ABSOLUTE MONOCYTE: 37 CELLS/uL
  ABSOLUTE SEGMENTED NEUTROPHIL: 776 CELLS/uL
  BASOPHIL: 0%
  EOSINOPHIL: 0.67%
  ERYTHROCYTE COUNT: 5.49 x10E6/uL
  HEMATOCRIT: 35.43%
  HEMOGLOBIN: 13.27 G/DL
  LEUKOCYTE COUNT: 7.73 x10E3/uL
  LYMPHOCYTE: 89.33%
  MEAN CORPUSCULAR HEMOGLOBIN: 24.17 pg
  MEAN CORPUSCULAR HEMOGLOBIN CONCENTRATION: 37.47 G/DL
  MEAN CORPUSCULAR VOLUME: 64.5 fL
  MONOCYTE: 0.33%
  NEUTROPHIL: 9.67%
  NUCLEATED RED BLOOD CELLS: 0 /100WBC
  PLATELET COUNT: 1285 x10E3/uL
  ALANINE AMINOTRANSFERASE: 65.67 u/L
  ALBUMIN: 4.4 G/DL
  ALKALINE PHOSPHATASE: 444.33 u/L
  ASPARTATE AMINOTRANSFERASE: 85.67 u/L
  BLOOD UREA NITROGEN: 15.67 mg/dL
  CARBON DIOXIDE: 24 mmol/L
  CHLORIDE: 100 MEQ/L
  CHOLESTEROL: 62 mg/dL
  CREATINE PHOSPHOKINASE: 202.67 u/L
  CREATININE: 0.15 mg/dL
  GLUCOSE: 146.67 mg/dL
  LACTATE DEHYDROGENASE: 137.67 u/L
  LIPASE: 8.33 u/L
  PHOSPHORUS: 10.97 mg/dL
  POTASSIUM: 5.88 MEQ/L
  SODIUM: 147.6 MEQ/L
  TOTAL BILIRUBIN: 0.23 mg/dL
  TOTAL PROTEIN: 6 G/DL
  URIC ACID: 0.83 mg/dL
